According to article PMC3493468 (Chembiochem : a European journal of chemical biology, 2011):
Peptide text beside a SMILES is read from it. * marks the point of attachment. Palmitoyl = CCCCCCCCCCCCCCCC(=O)*

Tests used:
[1] = tested on: SMO; details: cited from earlier work
[2] = Biodistribution of 3H-labeled lipopeptide; format: in vivo, mice; details: subcutaneous, topical, peritoneal or oral administration; Supplementary Figure S6
[3] = tested on: SMO; experiment: Inhibition of SMO function / Hedgehog pathway; format: cell-based
[4] = tested on: IGF-1 induced activity of AKT; experiment: IGF-1-induced AKT activation; format: cell-based; details: MCF-7 cells, compound 1 hour, then IGF-1 25 ng/ml for 20 min; Figure 5

Ac-AKFSTHWAYTLK-(ε-Pal), all-D [SMOi2-17]
in vitro activity as inhibitor of the Hedgehog pathway [1]: subnanomolar range | entry into circulation [2]: did not enter the circulation

Ac-LTYAWHTSFKAL-NH2 [SMOi2-9]
inhibition of SMO function [3]: inactive

Ac-(ε-Pal)-KLTYAWHTSFKAL-NH2 [SMOi2-43]
in vitro activity as inhibitor of the Hedgehog pathway [1]: potent inhibitor

CCCCCCCCCCCCCCCC(=O)N[C@@H](CCCNC(=N)N)C(=O)N[C@@H](CC(N)=O)C(=O)N[C@@H](CC(N)=O)C(=O)N[C@@H](CO)C(=O)N[C@@H](CCCNC(=N)N)C(=O)N[C@@H](CC(C)C)C(=O)NCC(=O)N[C@@H](CC(N)=O)C(=O)NCC(=O)N[C@H](C(=O)N[C@@H](CC(C)C)C(=O)N[C@@H](Cc1ccc(O)cc1)C(N)=O)C(C)C [Peptide 16] (Palmitoyl-RNNSRLGNGVLY-NH2)
inhibition of IGF-1 induced activity of AKT [4]: inhibited IGF-1 induced activity of AKT in a dose-dependent manner
